Patent US9283196B1, “Cycloalkyl-diamines for CNS disorders” (MediSynergics, LLC, priority 2013, dated 2016)

Key:
[1] = target: kappa opioid receptors (KOR) (Homo sapiens, UniProt P41145); test: kappa opioid receptor (KOR) Ki determination by NIMH PDSP; assay type: binding
Procedure: (§1) The compounds from the above Examples were tested for activity vs. kappa opioid receptors (KOR) and for Sigma-1 activity. Ki determinations were generously provided by the National Institute of Mental Health's Psychoactive Drug Screening Program (PDSP), Contract # HHSN-271-2013-00017-C (NIMH PDSP). The NIMH PDSP is Directed by Bryan L. Roth MD, PhD at the University of North Carolina at Chapel Hill and Project Officer Jamie Driscoll at NIMH, Bethesda Md. U.S.A. Procedures employed by the PDSP are described in the NIMH PDSP Assay Protocol Book, Version II.

Sigma-1 = Sigma-1 Ki determination by NIMH PDSP; assay type: binding
Procedure: as §1

Sequence of kappa opioid receptors (KOR) (P41145 whole entry): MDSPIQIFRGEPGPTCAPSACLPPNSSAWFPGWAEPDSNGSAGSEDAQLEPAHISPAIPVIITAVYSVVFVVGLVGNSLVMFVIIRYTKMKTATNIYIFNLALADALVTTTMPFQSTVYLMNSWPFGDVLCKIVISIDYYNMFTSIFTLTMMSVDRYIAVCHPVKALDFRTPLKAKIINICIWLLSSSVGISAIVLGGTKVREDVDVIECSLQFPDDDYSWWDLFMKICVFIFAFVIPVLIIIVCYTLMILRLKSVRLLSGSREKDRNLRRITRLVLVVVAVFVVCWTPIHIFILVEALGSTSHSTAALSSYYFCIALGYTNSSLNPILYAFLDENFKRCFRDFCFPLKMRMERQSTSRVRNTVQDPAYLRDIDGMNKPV

Row | SMILES | Ki [1] | Ki (Sigma-1)
1 | CN[C@]1(c2ccccc2Cl)CCCC[C@H]1NCCCc1ccccc1 (relative stereo) [Example 15a, Trans-1-(2-chlorophenyl)-N^2-(3-phenylpropyl)-N^1-methylcyclohexane-1,2-diamine] | 526 nM | 2260 nM
2 | CN[C@@]1(c2ccccc2Cl)CCCC[C@H]1NCCCN1CCOCC1 (relative stereo) [Example 16b] | 798 nM | 17 nM
3 | CN[C@@]1(c2ccccc2Cl)CCCC[C@H]1NCCCn1ccnc1 (relative stereo) [Example 12b, Cis-1-(2-chlorophenyl)-N^2-(3-(1-imidazolyl)-propyl)-N^1-methylcyclohexane-1,2-diamine] | > 1000 nM | 231 nM
4 | CN[C@]1(c2ccccc2Cl)CCCC[C@H]1NCCCN1CCN(C)CC1 (relative stereo) [Example 17a] | > 1000 nM | 19 nM
5 | CN[C@@]1(c2ccccc2Cl)CCCC[C@H]1NCCCN1CCN(C)CC1 (relative stereo) [Example 17b] | > 1000 nM | 72 nM
6 | CN[C@@]1(c2ccccc2Cl)CCCC[C@H]1NC1CCCCC1 (relative stereo) [Example 18b, Cis-1-(2-chlorophenyl)-N^2-cyclohexyl-N^1-methylcyclohexane-1,2-diamine] | 608 nM | –
7 | CN[C@@]1(c2ccccc2Cl)CCCC[C@H]1NCCCc1ccccc1 (relative stereo) [Example 15b, Cis-1-(2-chlorophenyl)-N^2-(3-phenylpropyl)-N^1-methylcyclohexane-1,2-diamine] | 139 nM | 177 nM
